In ChEMBL document CHEMBL3875182 (Bioorg Med Chem, 2017) one finds MIC data, which are given here for 9 compounds.

≈ marks a conversion by molar mass, not a printed value.

Assay [1] deals with Mycobacterium tuberculosis. Nature of the assay: Antibacterial activity against isoniazid/rifampin-resistant Mycobacterium tuberculosis after 8 to 9 days by BacT/Alert MP bottle assay. The assay is classed as functional.
The test system of assay [2] is Mycobacterium tuberculosis. Nature of the assay: Antibacterial activity against rifampin-resistant Mycobacterium tuberculosis after 8 to 9 days by BacT/Alert MP bottle assay. The assay is classed as functional.

Regarding `COc1ccc(C2=Nn3c(nnc3-c3ccncc3)SC2)cc1`, the MIC in assay [1] was determined as 4 µg/mL (≈ 12.4 µM); in assay [2] it was 2 µg/mL (≈ 6.18 µM).
For `O=[N+]([O-])c1ccc(C2=Nn3c(nnc3-c3ccncc3F)SC2)cc1` the same measures were 4 µg/mL (≈ 11.2 µM) and 2 µg/mL (≈ 5.61 µM).
In the same order, the values of `O=[N+]([O-])c1ccc(C2=Nn3c(Cc4ccc5ccccc5c4)nnc3SC2)cc1` are 4 µg/mL (≈ 9.96 µM) and 4 µg/mL (≈ 9.96 µM).
In the same order, the values of `c1ccc(C2=Nn3c(nnc3-c3ccccc3)SC2)cc1` are 4 µg/mL (≈ 13.7 µM) and 2 µg/mL (≈ 6.84 µM).
As to `Fc1ccc(-c2nnc3sc(COc4ccccc4)nn23)cc1`, the MIC in assay [1] and in assay [2] was 8 µg/mL (≈ 24.5 µM) throughout.
As to `CO[C@H]1/C=C/O[C@@]2(C)Oc3c(C)c(O)c4c(O)c(c(/C=N/N5CCN(C)CC5)c(O)c4c3C2=O)NC(=O)/C(C)=C\C=C\[C@H](C)[C@H](O)[C@@H](C)[C@@H](O)[C@@H](C)[C@H](OC(C)=O)[C@@H]1C` [RIFAMPIN], the figures for the minimal inhibitory concentration (MIC) in assay [1] and in assay [2] were at least 16 µg/mL and 16 µg/mL (≈ 19.4 µM), respectively.
For `Brc1ccc(-c2nnc3n2N=C(c2ccccc2)CS3)cc1` the same measures were 2 µg/mL (≈ 5.39 µM) and 1 µg/mL (≈ 2.69 µM).
Take `O=[N+]([O-])c1ccc(C2=Nn3c(nnc3-c3ccc(Br)cc3)SC2)cc1`: the MIC in assay [1] worked out at 2 µg/mL (≈ 4.8 µM); in assay [2], 0.25 µg/mL (≈ 0.601 µM).
For `NNC(=O)c1ccncc1` [ISONIAZID] the same measures were 4 µg/mL (≈ 29.2 µM) and 1 µg/mL (≈ 7.29 µM).
